# PubChem BioAssay AID1996
# Details: buffer; pH 7.4; 200.0 µM
row,Compound,solubility kinetic [µg/mL]
1,O=C1CSC(c2cccc([N+](=O)[O-])c2)N1c1ccccc1F (centres undefined),37.7
2,O=C(Cc1cccs1)Nc1ccccc1F,> 35.3
3,Cc1ccnc(NC(=O)COc2ccc3c(c2)CCC3)c1,1.6
4,CN(Cc1ccc(F)cc1)C(=O)CN1C(=O)c2ccccc2S1(=O)=O,49
5,Cc1ccc(C)c(OCCC(=O)OCC(=O)Nc2cc(S(=O)(=O)N3CCCCC3)ccc2C)c1,13.9
6,O=C(CSc1ccc2c(c1)OCCO2)NCc1ccccc1,44
7,COc1cc2nc(-c3ccccc3C)oc(=O)c2cc1OC,< 0.6
8,Cc1cccc2sc(NC(=O)Cn3c(C)csc3=O)nc12,5.1
9,CCCC(=O)Nc1c(-c2cccc(C)c2)c(=O)c2ccccc2n1C,13.1
10,CN(C(=O)CSc1ncn[nH]1)C1(C#N)CCCCC1,> 41.9
11,COc1ccccc1Oc1ccnc2cc(Cl)ccc12,9.1
12,CC1(C)Oc2ccc3ccc(=O)oc3c2/C(=N/O)C1=O,> 41
13,O=C(NCCO)N1c2ccccc2Sc2ccccc21,> 43
14,Cc1ccc(NC(=O)CS(=O)c2ccccc2N)c(C)c1 (centres undefined),> 45.4
15,Cc1cccc(N2C(=O)C3C4C=CC(C5CC45)C3C2=O)n1 (centres undefined),36.5
16,Cn1c(SCc2ccccc2Cl)nc2c1c(=O)[nH]c(=O)n2C,0.4
17,COc1ccc(N2C(=O)NC(=O)C2=O)cc1,> 33
18,Nc1ccc(-c2nc3ncccc3o2)cc1,> 31.7
19,CN(Cc1cccc(F)c1)C(=O)C1CC(=O)N(c2ccc3c(c2)OCCO3)C1 (centres undefined),> 57.7
20,CCN(C(=O)COC(=O)c1ccccc1O)c1nc2ccccc2s1,2.4
21,CCOC(=O)C(Cc1ccccc1)C(=O)NCc1ccccc1 (centres undefined),> 46.7
22,O=S(=O)(c1ccccc1)N1CCc2ccccc2C1,< 0.6
23,O=c1cnnc(Nc2ccccc2F)[nH]1,> 30.9
24,Cc1cc(NC(=O)c2cccs2)no1,> 31.2

row,Compound,solubility kinetic [µg/mL]
1,Cc1ccc(NC(=O)C2CC2c2ccccc2)c([N+](=O)[O-])c1 (centres undefined),3.5
2,Cc1cc(C(=O)OCC(=O)NCCN2C(=O)CSC2=O)ccc1[N+](=O)[O-],> 57.2
3,O=C(CSc1nnc(C2CC2)n1Cc1ccccc1)N1CCNC1=O,> 53.6
4,Cc1ccc(NC(=O)CCNC(=O)c2ccccc2)cc1F,2.9
5,O=C(/C=C/NCc1cccnc1)c1ccc(-c2ccccc2)cc1,2.8
6,CC(=O)C1=C(C)NC2=C(C(=O)CC(C)(C)C2)C1C (centres undefined),> 37.1
7,COC(=O)c1ccc(C2SCC(=O)N2Cc2ccccc2)cc1 (centres undefined),37.3
8,CC(=O)Oc1ccc(C(=O)Nc2cccc(C(=O)NC(C)(C)C)c2)cc1,45
9,CC(=O)c1c(C)[nH]c(C(=O)Nc2ccc(Cl)cc2)c1C,2.2
10,O=S(=O)([O-])CCC[N+]1(CC#Cc2ccccc2)CCCCC1,> 48.2
11,CCc1cccc(C)c1NC(=O)COC(=O)CSCc1ccccc1,13.7
12,CC(=O)CCc1ccc(OCCCOc2cccc3cccnc23)cc1,25.5
13,CCOc1ccc(C(=O)NNC(=O)CN2C(=O)C3CC=CCC3C2=O)cc1OC (centres undefined),> 60.2
14,COc1ccc(CNC(=O)c2sccc2C)cc1,> 39.2
15,CC(C)CC(=O)N1CC(=O)Nc2ccc(F)cc2C1c1ccccc1 (centres undefined),> 51.1
16,O=C(NCCCn1ccnc1)c1cccc(Cl)c1,> 39.6
17,COc1ccc(NC(=O)c2cccs2)cn1,> 35.1
18,CCSc1ccccc1-c1nc(-c2ccncc2)no1,5.1
19,CN(CCOc1ccc(CC2SC(=O)NC2=O)cc1)c1ccccn1.O=C(O)/C=C\C(=O)O (centres undefined),68.2
20,COC(=O)c1ccsc1NC(=O)CN1CCN(c2ncccn2)CC1,4.1
21,Cc1ccccc1OCC(=O)NCCCNC(=O)c1ccncc1,39.8
22,Cc1ccc(OCCCC(=O)NCc2ccco2)c(C)c1,> 43.1
23,O=C(NC1CCSc2ccccc21)c1cccc([N+](=O)[O-])c1 (centres undefined),2.4
24,CC(=O)c1ccc(NC(=O)c2ccccc2-c2ccccc2C(=O)O)cc1,> 53.9

row,Compound,solubility kinetic [µg/mL]
1,COc1ccccc1NS(=O)(=O)c1cc(NC(=O)c2ccc(Cl)nc2)ccc1N1CCCC1,2.1
2,CCc1ccc(OCC2Cn3c(nc4c3c(=O)[nH]c(=O)n4C)O2)cc1 (centres undefined),3.8
3,Oc1cccc2ccc(/C=C/c3ccccc3Br)nc12,< 0.7
4,Cc1c(O)c2ccccc2n(-c2ccccc2)c1=O,> 37.7
5,CC(=O)N1N=C(c2ccccc2)OC1c1cccnc1 (centres undefined),> 40.1
6,Cc1cc(C)cc(OCC(=O)OCC(=O)Nc2cc(S(=O)(=O)N3CCOCC3)ccc2Cl)c1,41.6
7,COc1cccc(NC(=O)CN(C)CC(=O)NCC(=O)Nc2ccc(F)cc2)c1,> 60.4
8,Cc1c(C(=O)C(=O)N2c3ccccc3CC2C)c2ccccc2n1C (centres undefined),1.6
9,O=C(NCC(O)c1ccccc1)c1cccs1 (centres undefined),> 37.1
10,CC(C)N(C(=O)Cn1c(Cl)nc2ccccc21)C(C)C,> 44.1
11,COCc1cc(=O)[nH]c(/N=C(\N)Nc2ccc(Cl)c(Cl)c2)n1,0.2
12,CCC(C)[C@H](NC(=O)Nc1ccccc1F)C(=O)OC (some centres undefined),> 42.3
13,Cc1cc(/C(N)=N/OC(=O)Nc2ccccc2)no1,15.7
14,O=C(O)c1ccc(N=Cc2c(O)[nH]c(=O)[nH]c2=O)cc1,> 41.3
15,COc1ccc(C(CNC(=O)c2ccc(S(=O)(=O)N3CC(C)CC(C)C3)cc2)N(C)C)cc1 (centres undefined),> 71
16,Cc1ccc(NC(=S)NC2CCSc3ccccc32)cc1C (centres undefined),< 0.4
17,COC(=O)C/C=N/N=C1/NC(=O)/C(=C/C(=O)O)S1,> 40.7
18,CCOC(=O)C1CCCN(C(=O)c2cccc3ccccc23)C1 (centres undefined),> 46.7
19,COc1cc2ncnc(NCc3ccc4c(c3)OCO4)c2cc1OC,3.3
20,COc1ccc2c(c1)-c1nc(/N=C/c3ccc(O)cc3)sc1CC2,34
21,Nc1cc(Nc2ccccc2)c2nonc2c1[N+](=O)[O-],0.5
22,O=C(O)c1ccc(Nc2cccc(F)c2)c([N+](=O)[O-])c1,> 41.4
23,CCCc1cc(NCc2ccccn2)n2c(nc3ccccc32)c1C#N,< 0.1
24,O=C(COc1ccc2ccc(=O)oc2c1)Nc1cccnc1,14.2

row,Compound,solubility kinetic [µg/mL]
1,N=c1oc2ccc(Cl)cc2cc1C(=O)Nc1ccc(F)cc1,1
2,Cc1ccc(OCCn2cnc(Cl)c2Cl)cc1,31.7
3,CCOC(=O)c1csc(NC(=O)c2ccc(C#N)cc2)n1,1
4,O=C(NCc1ccccn1)C1CCCCC1,> 32.7
5,CCOC(=O)c1[nH]c(C)c(CC(C)C)c1C,24
6,O=C(CCNC(=O)c1ccc(Cl)cc1)NCc1ccco1,> 46
7,O=C(CSc1nccc(=O)[nH]1)N1CCOCC1,> 38.3
8,CCOc1ccc(S(=O)(=O)N2CCOCC2)cc1[N+](=O)[O-],> 47.4
9,CCCn1ccc(O)c(Cc2ccc(Cl)cc2)c1=O,7.3
10,O=C(NC(=O)c1ccc(Cl)cc1)Nc1ccc(-c2cnco2)cc1,2.7
11,Cc1cc([N+](=O)[O-])nn1CCCC(=O)NC1CCCCC1,> 44.2
12,CC(=O)c1ccc(Sc2ccccn2)c([N+](=O)[O-])c1,38
13,CN(Cc1ccccc1)C(=S)Nc1cccnc1,> 38.6
14,CCCn1cnc2cc(NC(=O)c3cccs3)ccc21,> 42.8
15,CCCC(=O)Nc1cc2c3c(c1)CC(=O)N3CCC2,> 38.7
16,COc1ccc(-c2cc(=O)oc(-c3cccc(C)c3)n2)cc1,1.1
17,COc1ccc(OC)c(NC(=O)CCN2CCN(CCO)CC2)c1,45.7
18,Cc1nc(N2CCC(C)CC2)c(C#N)c(C)c1[N+](=O)[O-],0.9
19,O=C(CN1C(=O)c2cccc([N+](=O)[O-])c2C1=O)NCc1ccccc1,> 50.9
20,CS(=O)(=O)N(CC(=O)Nc1ccc(F)cc1F)C1CCCCC1,> 52
21,CC(C)OCCCNC1=C(Cl)C(=O)c2ccccc2C1=O,35.5
22,O=C1CSC(c2cccc(F)c2)N1c1ccccc1 (centres undefined),> 41
23,CCOC(=O)c1cc(-c2csc(Nc3c(C)cc(C)cc3C)n2)on1,0.4
24,CCOC(=O)c1ccc(NC(=S)NCc2ccco2)cc1,> 45.7

row,Compound,solubility kinetic [µg/mL]
1,Cc1ccsc1-c1nc(CN2CCCC2c2ccc(F)cc2)c(C)o1 (centres undefined),14.9
2,COc1ccc(S(=O)(=O)N(C)CC(=O)N2CCCC2)cc1,> 46.9
3,COc1ccc(C(CCNCc2ccc(OC)c(OC)c2)c2ccc(F)cc2)cc1 (centres undefined),> 61.4
4,COc1cccc(NC(=O)COC(=O)CC2CC3CCC2C3)c1 (centres undefined),24.1
5,Cc1ccccc1NC(=O)c1ccc(OCc2c(C)noc2C)cc1,42.3
6,COc1ccc(C2c3c(nc[nH]c3=O)Oc3nc[nH]c(=O)c32)cc1,> 48.6
7,Cc1c(Cl)cnc(NC(=O)COC(=O)C2CCCC2)c1Cl,> 49.7
8,O=C(O)c1cc(N2CCOCC2)nc2ccccc12,37.9
9,COc1cc(NC(=S)N2CCCC2)cc(OC)c1,34.8
10,COCCCn1c(=O)c2ccccc2n(Cc2cccc(C)c2)c1=O,42.6
11,N#Cc1ccc(/C=C\c2nccc3c2[nH]c2ccccc23)cc1,1.3
12,Nc1ccc(C(=O)NC23CC4CC(CC(C4)C2)C3)cc1,37.3
13,Cc1cnc(NC(=O)Cc2ccc(C)c(C)c2)s1,2
14,O=C(Nc1ccc2c(c1)C(=O)OC2)c1ccc(F)cc1F,2.3
15,CC(=O)c1c(C)n(-c2ccc(C)cc2)c2ccc(O)cc12,< 0.6
16,CN(CC1COc2ccccc2O1)C(=O)c1ccc(N(C)C)cc1 (centres undefined),> 49
17,Oc1ccc(CCC2CCCCN2Cc2nc(C3CC3)no2)cc1 (centres undefined),> 49.1
18,COc1ccc(/C=C/C2=Nc3ccccc3NC(C)(C)C2)cc1OC,43
19,CC(CCc1ccccc1)NC(=O)C(=O)c1c[nH]c2ccccc12 (centres undefined),0.9
20,Cc1ccc(NC(=O)Nc2ccccc2)nc1,2.6
21,C=CCN1CC(C)/C(=N\O)CC1C (centres undefined),26.4
22,CCC1CCC2(CC1)NC(=O)N(CC(=O)N1CCc3ccccc31)C2=O (centres undefined),3.4
23,CN(C)S(=O)(=O)N1CCN(CC(=O)Nc2ccc(F)cc2)CC1,> 51.7
